Measurements reported in ChEMBL document CHEMBL4334438, “Discovery of novel glycogen synthase kinase-3α inhibitors: Structure-based virtual screening, preliminary SAR and biological evaluation for treatment of acute myeloid leukemia” (Eur J Med Chem, 2019).

What was measured:
[1] = molecular target: PI3K p110 beta/p85 alpha (Homo sapiens) (UniProt P27986+P42338); test: Inhibition of recombinant full-length human PI3K p110beta/p85alpha at 1 uM assessed as residual activity at 1 uM using phosphatidylinositol-4, 5-bisphosphate as substrate measured after 40 mins by fluorescence assay; format: protein-complex assay
[2] = molecular target: Tyrosine-protein kinase TXK (Homo sapiens) (UniProt P42681); test: Inhibition of human Txk (256 to end residues) assessed as residual activity at 1 uM using GEEPLYWSFPAKKK as substrate measured after 40 mins in presence of [gamma33P]ATP by scintillation counting method relative to control
[3] = molecular target: Leucine-rich repeat serine/threonine-protein kinase 2 (Homo sapiens) (UniProt Q5S007); test: Inhibition of recombinant human LRRK2 (970 to end residues) assessed as residual activity at 1 uM using RLGRDKYKTLRQIRQ as substrate after 40 mins in presence of [gamma-33ATP] by scintillation counting based radiometry assay relative to control
[4] = molecular target: Receptor-type tyrosine-protein kinase FLT3 (Homo sapiens) (UniProt P36888); test: Inhibition of recombinant human FLT3 (564 to end residues) assessed as residual activity at 1 uM using EAIYAAPFAKKK as substrate at 40 mins in presence of [gamma-33ATP] by scintillation counting based radiometry assay relative to control
[5] = molecular target: Cyclin-dependent kinase-like 4 (Homo sapiens) (UniProt Q5MAI5); test: Inhibition of recombinant full length human CDKL4 assessed as residual activity at 1 uM in presence of [gamma-33ATP] by scintillation counting based radiometry assay relative to control
[6] = molecular target: Tau-tubulin kinase 1 (Homo sapiens) (UniProt Q5TCY1); test: Inhibition of human TTBK1 (1 to 479 residues) assessed as residual activity at 1 uM using Casein as substrate measured after 40 mins in presence of [gamma33P]ATP by scintillation counting method relative to control
[7] = molecular target: Serine/threonine-protein kinase MARK2 (Homo sapiens) (UniProt Q7KZI7); test: Inhibition of recombinant full-length human PAR1Balpha assessed as residual activity at 1 uM using KKKVSRSGLYRSPSMPENLNRPR as substrate measured after 40 mins in presence of [gamma33P]ATP by scintillation counting method relative to control
[8] = molecular target: Death-associated protein kinase 1 (Homo sapiens) (UniProt P53355); test: Inhibition of recombinant human DAPK1 (1 to 296 residues) assessed as residual activity at 1 uM KKLNRTLSFAEPG as substrate incubated 40 mins in presence of [gamma-33ATP] by scintillation counting based radiometry assay relative to control
[9] = molecular target: cAMP-dependent protein kinase catalytic subunit PRKX (Homo sapiens) (UniProt P51817); test: Inhibition of recombinant human full length PrKX assessed as residual activity at 1 uM using RRRLSFAEPG as substrate measured after 40 mins in presence of [gamma33P]ATP by scintillation counting method relative to control
[10] = molecular target: Fibroblast growth factor receptor 3 (Homo sapiens) (UniProt P22607); test: Inhibition of recombinant human FGFR3 (447 to 761 residues) assessed as residual activity at 1 uM using poly(Glu, Tyr) 4:1 as substrate at 40 mins in presence of [gamma-33ATP] by scintillation counting based radiometry assay relative to control
[11] = molecular target: Mitogen-activated protein kinase 13 (Homo sapiens) (UniProt O15264); test: Inhibition of recombinant human full length SAPK4 assessed as residual activity at 1 uM using myelin basic protein as substrate measured after 40 mins in presence of [gamma33P]ATP by scintillation counting method relative to control
[12] = molecular target: Mitogen-activated protein kinase kinase kinase kinase 4 (Homo sapiens) (UniProt O95819); test: Inhibition of recombinant human MAP4K4 (1 to 328 residues) assessed as residual activity at 1 uM using RLGRDKYKTLRQIRQ as substrate incubated for 40 mins in presence of [gamma-33ATP by scintillation counting based radiometry assay relative to control
[13] = molecular target: Tyrosine-protein kinase BTK (Homo sapiens) (UniProt Q06187); test: Inhibition of recombinant full length human BTK assessed as residual activity at 1 uM using KVEKIGEGTYGVV substrate incubated for 40 mins in presence of [gamma-33ATP] by scintillation counting based radiometry assay relative to control
[14] = molecular target: Serine/threonine-protein kinase PAK 1 (Homo sapiens) (UniProt Q13153); test: Inhibition of recombinant human PAK1 (150 to end residues) assessed as residual activity at 1 uM using RRRLSFAEPG as substrate measured after 40 mins in presence of [gamma33P]ATP by scintillation counting method relative to control
[15] = molecular target: Myosin light chain kinase, smooth muscle (Homo sapiens) (UniProt Q15746); test: Inhibition of recombinant human MLCK (1425 to 1771 residues) assessed as residual activity at 1 uM […] incubated for 40 mins in presence of [gamma-33ATP by scintillation counting based radiometry assay relative to control
[16] = molecular target: Tyrosine-protein kinase Fyn (Homo sapiens) (UniProt P06241); test: Inhibition of recombinant full length human Fyn assessed as residual activity at 1 uM using KVEKIGEGTYGVVYK as substrate at 40 mins in presence of [gamma-33ATP] by scintillation counting based radiometry assay relative to control
[17] = molecular target: Bone morphogenetic protein receptor type-1B (Homo sapiens) (UniProt O00238); test: Inhibition of human ALK6 (148 to end residues) assessed as residual activity at 1 uM using casein as substrate incubated for 40 mins in presence of [gamma-33ATP] by scintillation counting based radiometry assay relative to control
[18] = molecular target: MAP/microtubule affinity-regulating kinase 3 (Homo sapiens) (UniProt P27448); test: Inhibition of recombinant full length human MARK3 assessed as residual activity at 1 uM using KKKVSRSGLYRSP as substrate incubated for 40 mins in presence of [gamma-33ATP by scintillation counting based radiometry assay relative to control
[19] = molecular target: Serine/threonine-protein kinase ULK3 (Homo sapiens) (UniProt Q6PHR2); test: Inhibition of recombinant full-length human ULK3 at 1 uM assessed as residual activity at 1 uM using casein as substrate measured after 40 mins in presence of [gamma33P]ATP by scintillation counting method relative to control
[20] = molecular target: Macrophage colony-stimulating factor 1 receptor (Homo sapiens) (UniProt P07333); test: Inhibition of recombinant human FMS (538 to end residues) assessed as residual activity at 1 uM using EEEEYEEEEEEYYIIEEEEEEYEEEEEEYYEEEEEEKKKK as substrate at 40 mins in presence of [gamma-33ATP] by scintillation counting based radiometry assay relative to control
[21] = test system: Serine/threonine-protein kinase N1 (Homo sapiens), Q16512 [V901I]; test: Inhibition of recombinant human PRK1 V901I mutant (498 to end residues) assessed as residual activity at 1 uM using KKLNRTLSFAEPG as substrate measured after 40 mins in presence of [gamma33P]ATP by scintillation counting method relative to control

Tau-tubulin kinase 1 (Homo sapiens), sequence (Q5TCY1 whole entry, the tested form may be a part): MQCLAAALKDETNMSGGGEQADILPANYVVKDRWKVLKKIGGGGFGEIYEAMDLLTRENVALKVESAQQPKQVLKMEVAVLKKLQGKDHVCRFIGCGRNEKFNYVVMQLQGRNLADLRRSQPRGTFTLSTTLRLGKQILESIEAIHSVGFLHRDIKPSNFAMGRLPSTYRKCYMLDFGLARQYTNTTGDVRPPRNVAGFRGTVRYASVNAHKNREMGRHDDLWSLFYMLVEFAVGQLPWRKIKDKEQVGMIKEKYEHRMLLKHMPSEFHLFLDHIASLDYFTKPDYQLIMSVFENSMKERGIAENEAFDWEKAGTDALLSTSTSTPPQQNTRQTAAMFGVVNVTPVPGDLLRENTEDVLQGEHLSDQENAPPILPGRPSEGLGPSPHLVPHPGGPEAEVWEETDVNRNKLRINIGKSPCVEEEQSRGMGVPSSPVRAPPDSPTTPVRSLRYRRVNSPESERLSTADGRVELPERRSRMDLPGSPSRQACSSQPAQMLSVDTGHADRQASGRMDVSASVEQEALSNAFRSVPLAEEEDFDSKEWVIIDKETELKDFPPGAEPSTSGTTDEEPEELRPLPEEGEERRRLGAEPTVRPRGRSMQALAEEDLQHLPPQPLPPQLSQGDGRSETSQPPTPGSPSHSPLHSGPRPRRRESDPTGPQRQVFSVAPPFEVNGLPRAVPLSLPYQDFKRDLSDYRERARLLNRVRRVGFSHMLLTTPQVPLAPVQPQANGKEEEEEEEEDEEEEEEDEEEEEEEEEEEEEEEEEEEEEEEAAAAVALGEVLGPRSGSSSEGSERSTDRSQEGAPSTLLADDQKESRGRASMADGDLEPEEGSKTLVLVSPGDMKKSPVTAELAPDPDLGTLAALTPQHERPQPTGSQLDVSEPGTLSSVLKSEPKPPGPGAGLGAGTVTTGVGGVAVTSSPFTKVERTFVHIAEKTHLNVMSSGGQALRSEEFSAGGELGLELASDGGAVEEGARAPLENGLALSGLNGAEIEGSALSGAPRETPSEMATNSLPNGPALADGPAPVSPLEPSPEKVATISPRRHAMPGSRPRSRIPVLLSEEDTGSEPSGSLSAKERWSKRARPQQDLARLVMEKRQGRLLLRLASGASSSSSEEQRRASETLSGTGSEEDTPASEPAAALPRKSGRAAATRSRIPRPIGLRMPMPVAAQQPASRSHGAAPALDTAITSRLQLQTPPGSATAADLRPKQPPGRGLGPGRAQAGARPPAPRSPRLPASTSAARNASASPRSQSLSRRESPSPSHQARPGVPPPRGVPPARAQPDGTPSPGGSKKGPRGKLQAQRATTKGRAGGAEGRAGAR
Macrophage colony-stimulating factor 1 receptor (Homo sapiens), sequence (P07333 whole entry): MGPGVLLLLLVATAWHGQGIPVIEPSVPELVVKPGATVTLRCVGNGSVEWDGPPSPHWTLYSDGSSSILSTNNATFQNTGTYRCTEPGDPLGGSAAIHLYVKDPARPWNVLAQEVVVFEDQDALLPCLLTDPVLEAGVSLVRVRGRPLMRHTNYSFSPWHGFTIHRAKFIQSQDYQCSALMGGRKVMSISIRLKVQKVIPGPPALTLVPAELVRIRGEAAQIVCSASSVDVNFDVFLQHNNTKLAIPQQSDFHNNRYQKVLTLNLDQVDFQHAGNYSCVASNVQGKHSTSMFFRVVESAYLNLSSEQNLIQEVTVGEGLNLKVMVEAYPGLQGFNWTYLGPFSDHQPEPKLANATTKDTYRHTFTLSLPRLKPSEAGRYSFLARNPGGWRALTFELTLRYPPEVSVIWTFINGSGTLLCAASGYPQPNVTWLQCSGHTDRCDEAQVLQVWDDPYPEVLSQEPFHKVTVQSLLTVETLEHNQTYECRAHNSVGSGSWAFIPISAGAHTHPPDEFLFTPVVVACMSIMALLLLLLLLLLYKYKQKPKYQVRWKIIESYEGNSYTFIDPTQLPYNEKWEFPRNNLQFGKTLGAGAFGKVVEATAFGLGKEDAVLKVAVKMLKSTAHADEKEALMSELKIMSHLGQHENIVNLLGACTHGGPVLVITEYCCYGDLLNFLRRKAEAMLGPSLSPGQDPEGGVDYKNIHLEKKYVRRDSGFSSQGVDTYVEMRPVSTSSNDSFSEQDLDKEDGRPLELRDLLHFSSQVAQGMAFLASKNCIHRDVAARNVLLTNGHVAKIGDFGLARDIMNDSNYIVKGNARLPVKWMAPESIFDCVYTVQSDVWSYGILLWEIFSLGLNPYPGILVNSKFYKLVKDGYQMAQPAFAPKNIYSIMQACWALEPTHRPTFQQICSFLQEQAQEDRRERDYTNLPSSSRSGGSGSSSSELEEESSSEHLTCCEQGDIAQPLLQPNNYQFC
Mitogen-activated protein kinase 13 (Homo sapiens), sequence (O15264 whole entry, the tested form may be a part): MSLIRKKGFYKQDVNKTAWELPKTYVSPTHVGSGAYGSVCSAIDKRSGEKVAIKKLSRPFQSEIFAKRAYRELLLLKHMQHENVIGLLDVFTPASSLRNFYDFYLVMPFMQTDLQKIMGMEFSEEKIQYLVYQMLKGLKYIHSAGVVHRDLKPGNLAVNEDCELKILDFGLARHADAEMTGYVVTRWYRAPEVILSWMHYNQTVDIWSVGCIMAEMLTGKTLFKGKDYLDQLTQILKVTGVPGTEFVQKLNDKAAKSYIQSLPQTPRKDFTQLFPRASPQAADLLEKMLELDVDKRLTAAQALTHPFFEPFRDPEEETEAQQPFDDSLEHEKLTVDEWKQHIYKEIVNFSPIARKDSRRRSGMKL
Bone morphogenetic protein receptor type-1B (Homo sapiens), sequence (O00238 whole entry): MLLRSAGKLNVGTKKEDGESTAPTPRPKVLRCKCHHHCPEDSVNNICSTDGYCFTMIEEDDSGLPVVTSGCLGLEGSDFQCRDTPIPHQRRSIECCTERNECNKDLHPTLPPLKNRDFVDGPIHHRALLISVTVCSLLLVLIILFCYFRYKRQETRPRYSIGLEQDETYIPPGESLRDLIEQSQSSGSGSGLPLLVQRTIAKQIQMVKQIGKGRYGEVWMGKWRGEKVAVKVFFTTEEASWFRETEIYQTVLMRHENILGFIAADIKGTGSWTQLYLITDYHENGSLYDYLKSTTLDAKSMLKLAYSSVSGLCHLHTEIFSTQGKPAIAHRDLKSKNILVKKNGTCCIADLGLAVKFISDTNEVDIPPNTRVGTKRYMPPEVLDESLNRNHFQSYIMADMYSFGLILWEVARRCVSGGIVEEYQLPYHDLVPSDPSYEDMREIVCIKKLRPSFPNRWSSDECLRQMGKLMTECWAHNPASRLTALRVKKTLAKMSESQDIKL
Tyrosine-protein kinase TXK (Homo sapiens), sequence (P42681 whole entry): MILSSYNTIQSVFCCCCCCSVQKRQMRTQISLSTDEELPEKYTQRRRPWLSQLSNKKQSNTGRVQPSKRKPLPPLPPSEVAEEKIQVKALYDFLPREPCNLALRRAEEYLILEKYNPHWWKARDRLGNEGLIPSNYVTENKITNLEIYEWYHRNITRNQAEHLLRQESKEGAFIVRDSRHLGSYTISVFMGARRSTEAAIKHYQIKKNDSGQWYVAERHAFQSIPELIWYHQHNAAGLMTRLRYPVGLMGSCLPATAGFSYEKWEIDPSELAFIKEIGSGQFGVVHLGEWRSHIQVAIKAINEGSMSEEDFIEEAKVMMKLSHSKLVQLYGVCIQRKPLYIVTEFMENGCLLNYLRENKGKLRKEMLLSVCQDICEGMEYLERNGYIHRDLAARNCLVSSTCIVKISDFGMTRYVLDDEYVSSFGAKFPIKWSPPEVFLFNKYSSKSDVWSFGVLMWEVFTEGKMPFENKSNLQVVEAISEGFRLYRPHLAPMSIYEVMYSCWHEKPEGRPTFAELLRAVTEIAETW
Serine/threonine-protein kinase PAK 1 (Homo sapiens), sequence (Q13153 whole entry, the tested form may be a part): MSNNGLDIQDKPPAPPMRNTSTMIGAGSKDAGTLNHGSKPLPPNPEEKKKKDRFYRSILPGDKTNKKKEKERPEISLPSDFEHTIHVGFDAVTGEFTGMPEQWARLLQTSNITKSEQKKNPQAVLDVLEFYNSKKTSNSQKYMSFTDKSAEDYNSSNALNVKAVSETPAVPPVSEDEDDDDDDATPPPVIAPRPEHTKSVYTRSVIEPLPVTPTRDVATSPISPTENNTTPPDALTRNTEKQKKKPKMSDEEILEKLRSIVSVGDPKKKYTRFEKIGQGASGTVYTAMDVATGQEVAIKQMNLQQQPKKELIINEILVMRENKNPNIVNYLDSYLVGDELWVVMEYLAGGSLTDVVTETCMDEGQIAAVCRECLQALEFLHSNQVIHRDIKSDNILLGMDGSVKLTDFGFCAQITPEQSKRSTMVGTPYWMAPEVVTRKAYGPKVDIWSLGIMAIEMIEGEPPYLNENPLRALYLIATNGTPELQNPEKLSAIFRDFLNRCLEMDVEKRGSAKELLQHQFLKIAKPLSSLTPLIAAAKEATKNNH
Tyrosine-protein kinase Fyn (Homo sapiens), sequence (P06241 2-537 limits assumed): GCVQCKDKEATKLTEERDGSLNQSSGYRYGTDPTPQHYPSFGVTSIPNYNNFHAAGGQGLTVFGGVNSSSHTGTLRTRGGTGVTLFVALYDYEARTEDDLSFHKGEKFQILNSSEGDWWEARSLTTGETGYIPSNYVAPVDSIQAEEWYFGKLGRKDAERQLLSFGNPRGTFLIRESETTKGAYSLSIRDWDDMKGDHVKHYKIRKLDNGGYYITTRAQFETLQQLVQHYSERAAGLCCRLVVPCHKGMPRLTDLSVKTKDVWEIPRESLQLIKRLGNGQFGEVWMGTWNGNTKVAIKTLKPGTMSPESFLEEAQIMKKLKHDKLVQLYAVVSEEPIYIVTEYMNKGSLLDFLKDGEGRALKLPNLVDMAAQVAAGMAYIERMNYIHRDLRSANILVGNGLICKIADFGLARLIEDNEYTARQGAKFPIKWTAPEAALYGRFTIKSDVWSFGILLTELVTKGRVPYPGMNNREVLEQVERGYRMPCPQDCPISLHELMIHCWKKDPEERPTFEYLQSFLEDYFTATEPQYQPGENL

Structure (SMILES) | Activity [1] | Activity [2] | Activity [3] | Activity [4] | Activity [5] | Activity [6] | Activity [7] | Activity [8] | Activity [9] | Activity [10] | Activity [11] | Activity [12] | Activity [13] | Activity [14] | Activity [15] | Activity [16] | Activity [17] | Activity [18] | Activity [19] | Activity [20] | further results
C=CCOC(=O)c1cc(-c2ccc(/C=C3/NC(=S)NC3=O)o2)ccc1Cl | 97% | 104% | 100% | 108% | 58% | 114% | 95% | 92% | 107% | 106% | 89% | 95% | 101% | 100% | 89% | 102% | 90% | 99% | 99% | 117% | Activity [21]: 98%
N=C1NC(=O)/C(=C\c2ccc(-c3cccc([N+](=O)[O-])c3)o2)S1 | 99% | 100% | 99% | 90% | 65% | 104% | 105% | 84% | 96% | 107% | 97% | 82% | 93% | 104% | 37% | 79% | 103% | 100% | 100% | 106% | Activity [21]: 90%
